Experimental data published in patent US7018642B2 (The Procter & Gamble Company, priority 2001, dated 2006).

tested on: S. epidermidis strain ATCC 35984; test: Biofilm prevention screen (96-well microplate, crystal violet); assay type: cell-based; details: Staphylococcus epidermidis, ATCC35984, 32 μM, positive = prevention, negative = enhancement of biofilm formation, quadruplicate, read-out: average percentage reduction of biofilm formed relative to DMSO controls
Description: (§1) Overnight cultures of 3 mL are made of P. aeruginosa strain PAO1 (grown in R2A medium (Handbook of Microbiological Media; CRC Press, 1997, second edition, R. M. Atlas, ed.), modified to omit Mg^2+ but to include 0.3–0.5% fructose (pH 7.0) and 3 μM ferrous ammonium sulfate), P. fluorescens strain ATCC 13525 (grown in R2A modified to omit Mg^2+ but to include 0.3–0.5% sodium pyruvate (pH 7.0)), S. epidermidis strain ATCC 35984 (grown in a ¼ dilution of TSB (Handbook of Microbiological Media; CRC Press, 1997, second edition, R. M. Atlas, ed.) supplemented with 1% fructose (pH 7.0) and 3 μM ferrous ammonium sulfate). To each type of growth medium, HEPES (pH 7.3) is optionally added to a final concentration of 10 mM.
(§2) To PS, PVC, or PP (preferably PP or PVC) round-bottom, 96-well microplates containing 100 μl per well of the respective growth medium as described above, compounds to be tested (dissolved in DMSO) are added and mixed, to give a final concentration of 250–500 μM. These microplates then also are used to make successive dilutions of the compounds in the same respective growth medium to yield microplates containing final concentrations of, for example, 160 μM and 32 μM of the same set of compounds. Control wells are included in the dilution series that contain only DMSO. From the 3 ml overnight cultures, each of the three dilution plate sets is inoculated with 5 μl per well of a 1:1 dilution in the same liquid growth media of the appropriate culture. The covered plate is then incubated with shaking, at 30° C. (for P. aeruginosa or P. fluorescens) or 37° C. (for S. epidermidis), at 200 rpm, for 16–26 hours, in a humidity controlled environment.
(§3) Cells present in biofilm attached to the microplate surface are stained with CV either after removal of the liquid from each well, followed by rinsing three times (aspiration and addition) with 150 μl per well phosphate buffered saline solution (PBS) and final addition of 100 μl per well of PBS, or by direct addition of stain to bacterial cultures without rinsing. To 100 μl per well of PBS or of bacterial culture, 25 μl/well of 1% CV solution (in ˜10% ethanol) is added. After incubation at room temperature for 45 minutes, the dye solution is removed from the plates. Residual dye is immediately removed by gentle rinsing with a stream of deionized water by filling and inverting the plates 4–5 times, or by using an automated pipettor. Rinsed plates are air-dried at room temperature for 0.5–2 hours. Bound dye is extracted by the addition of 150 μL per well of 95% ethanol, followed by vigorous mixing for 10–15 seconds and incubation for 45 minutes at room temperature without shaking. Subsequently, either undiluted or diluted (in ethanol) samples of extracted CV are transferred to flat bottom, polystyrene microtiter plates and absorbances at 586 nm were measured in a microplate reader. Readings from wells containing compounds are compared to the average of data from control wells that contain only DMSO. Replicate samples are measured, and results are reported as averages of the replicate well data points.
(§4) Data are expressed in terms of the average percentage reduction of biofilm formed in the presence of each compound, relative to the DMSO controls, for quadruplicate samples. Assays are run using the three compound concentrations indicated. Positive numbers indicate prevention of biofilm formation by a compound, and negative numbers indicate enhancement of biofilm formation by a compound (percentage coefficients of variation are ≦10%).

Row | SMILES | inhibition at 32 µM
1 | CCCCCCCCNC(=O)[C@H]1CCCCN1C(C)=O [Compound 24] | -8%
2 | CCCCNC(=O)[C@@H]1CCCN1 [Compound 165] | -6%

same assay, conditions: Staphylococcus epidermidis, ATCC35984, 160 μM, positive = prevention, negative = enhancement of biofilm formation, quadruplicate, read-out: average percentage reduction of biofilm formed relative to DMSO controls

Row | SMILES | inhibition at 160 µM
3 | CCCCCCCCNC(=O)[C@H]1CCCCN1C(C)=O [Compound 24] | -20%
4 | CCCCNC(=O)[C@@H]1CCCN1 [Compound 165] | -15%

same assay, conditions: Staphylococcus epidermidis, ATCC35984, 390 μM, positive = prevention, negative = enhancement of biofilm formation, quadruplicate, read-out: average percentage reduction of biofilm formed relative to DMSO controls

Row | SMILES | inhibition at 390 µM
5 | CCCCCCCCNC(=O)[C@H]1CCCCN1C(C)=O [Compound 24] | -53%
6 | CCCCNC(=O)[C@@H]1CCCN1 [Compound 165] | -12%

tested on: P. aeruginosa strain PAO1; test: as above; assay type: cell-based; details: Pseudomonas aeruginosa, 32 μM, positive = prevention, negative = enhancement of biofilm formation, quadruplicate, read-out: average percentage reduction of biofilm formed relative to DMSO controls
Description: as §1, §2, §3, §4

Row | SMILES | inhibition at 32 µM
7 | CCCCCCCCNC(=O)[C@H]1CCCCN1C(C)=O [Compound 24] | -12%
8 | CCCCNC(=O)[C@@H]1CCCN1 [Compound 165] | 2%

same assay, conditions: Pseudomonas aeruginosa, 160 μM, positive = prevention, negative = enhancement of biofilm formation, quadruplicate, read-out: average percentage reduction of biofilm formed relative to DMSO controls

Row | SMILES | inhibition at 160 µM
9 | CCCCCCCCNC(=O)[C@H]1CCCCN1C(C)=O [Compound 24] | -22%
10 | CCCCNC(=O)[C@@H]1CCCN1 [Compound 165] | -16%

same assay, conditions: Pseudomonas aeruginosa, 390 μM, positive = prevention, negative = enhancement of biofilm formation, quadruplicate, read-out: average percentage reduction of biofilm formed relative to DMSO controls

Row | SMILES | inhibition at 390 µM
11 | CCCCCCCCNC(=O)[C@H]1CCCCN1C(C)=O [Compound 24] | -11%
12 | CCCCNC(=O)[C@@H]1CCCN1 [Compound 165] | 1%

tested on: P. fluorescens strain ATCC 13525; test: as above; assay type: cell-based; details: Pseudomonas fluorescens, ATCC13525, 32 μM, positive = prevention, negative = enhancement of biofilm formation, quadruplicate, read-out: average percentage reduction of biofilm formed relative to DMSO controls
Description: as §1, §2, §3, §4

Row | SMILES | inhibition at 32 µM
13 | CCCCCCCCNC(=O)[C@H]1CCCCN1C(C)=O [Compound 24] | -1%
14 | CCCCNC(=O)[C@@H]1CCCN1 [Compound 165] | 10%

same assay, conditions: Pseudomonas fluorescens, ATCC13525, 160 μM, positive = prevention, negative = enhancement of biofilm formation, quadruplicate, read-out: average percentage reduction of biofilm formed relative to DMSO controls

Row | SMILES | inhibition at 160 µM
15 | CCCCCCCCNC(=O)[C@H]1CCCCN1C(C)=O [Compound 24] | -6%
16 | CCCCNC(=O)[C@@H]1CCCN1 [Compound 165] | 4%

same assay, conditions: Pseudomonas fluorescens, ATCC13525, 390 μM, positive = prevention, negative = enhancement of biofilm formation, quadruplicate, read-out: average percentage reduction of biofilm formed relative to DMSO controls

Row | SMILES | inhibition at 390 µM
17 | CCCCCCCCNC(=O)[C@H]1CCCCN1C(C)=O [Compound 24] | -2%
18 | CCCCNC(=O)[C@@H]1CCCN1 [Compound 165] | 20%

tested on: S. epidermidis strain ATCC 35984; test: Improved biofilm dispersion screen (already-formed biofilms, crystal violet); assay type: cell-based; details: Staphylococcus epidermidis, ATCC35984, no NaOH, positive = dispersion, negative = enhancement of pre-existing biofilm, quadruplicate, read-out: average percentage reduction of biofilm relative to the two control values (dispersion)
Description: (§5) A modification of method disclosed in Reference Example 2, which greatly improves the sensitivity and reproducibility of the dispersion screen is hereby disclosed. […] In the modification described herein, compounds are added in the presence of the fresh liquid growth media, such that the resultant biofilms continue to grow, unless a test compound triggers their dispersion. Overnight cultures are made as above, and 100 μL of the appropriate liquid growth media are dispensed into duplicate 96 well microplates—in this fashion, two identical microplates are set up for each bacterial species to be assayed. Neither compounds nor DMSO are added prior to the inoculation of bacteria, and growth in the duplicate plates for 24 hours is allowed using the conditions specified in Reference Example 1. After growth of biofilm to be tested in the wells, cells present in biofilm attached to one of the duplicate microplates is stained with CV, quantitated as described in Reference Example 1, and the data for the entire plate averaged, resulting in a growth control value, t0. The remaining replicate of each microplate pairs is treated with compounds in DMSO, or DMSO alone for control wells, by first removing the cell suspensions from the wells, then adding fresh 100 μL volumes of the same appropriate liquid growth media, followed by direct addition and mixing of the compound DMSO solutions to give final compound concentrations of 390 μM. Incubation of the compound-containing microplates is then continued for an additional 22–26 hours using the same conditions described in Reference Example 1. Cell suspensions are then removed, 100 μL per well of a 0 mM NaOH (S. epidermidis), 20 mM NaOH (P. fluorescens), or 30 mM NaOH (P. aeruginosa) solution in PBS is added, and incubation at room temperature is allowed for 30 minutes. No addition of NaOH is made to the S. epidermidis suspension since a test assay indicated no amplification by base with S. epidermidis. The microplates are subsequently rinsed three times with 150 μL per well of PBS, followed by final liquid removal, staining with CV and quantitation as described in Reference Example 1. Data for each well that contained compound result in a compound value, R, and data for control wells that contained DMSO only are averaged to generate a second control value, t24. The effect of each compound tested on dispersion of the biofilm compared to the two control values is calculated thus: [formula] […] Data are expressed in terms of the average percentage reduction of biofilm formed in the presence of each compound, relative to the two control values, for quadruplicate samples. Assays are run as described above, using compound concentrations of 390 μM. Positive numbers indicate dispersion (reduction) of pre-existing biofilms by a compound, and negative numbers indicate enhancement (stimulation of growth) of pre-existing biofilms by a compound (percentage coefficients of variation are ≦15%).

Row | SMILES | inhibition at 390 µM
19 | CCCCCCCCNC(=O)[C@H]1CCCCN1C(C)=O [Compound 24] | -8%
20 | CCCCNC(=O)[C@@H]1CCCN1 [Compound 165] | -3%

tested on: P. aeruginosa strain PAO1; test: as above; assay type: cell-based; details: Pseudomonas aeruginosa, 30 mM NaOH step, positive = dispersion, negative = enhancement of pre-existing biofilm, quadruplicate, read-out: average percentage reduction of biofilm relative to the two control values (dispersion)
Description: as §5

Row | SMILES | inhibition at 390 µM
21 | CCCCCCCCNC(=O)[C@H]1CCCCN1C(C)=O [Compound 24] | -17%
22 | CCCCNC(=O)[C@@H]1CCCN1 [Compound 165] | 0%

tested on: P. fluorescens strain ATCC 13525; test: as above; assay type: cell-based; details: Pseudomonas fluorescens, ATCC13525, 20 mM NaOH step, positive = dispersion, negative = enhancement of pre-existing biofilm, quadruplicate, read-out: average percentage reduction of biofilm relative to the two control values (dispersion)
Description: as §5

Row | SMILES | inhibition at 390 µM
23 | CCCCCCCCNC(=O)[C@H]1CCCCN1C(C)=O [Compound 24] | 0%
24 | CCCCNC(=O)[C@@H]1CCCN1 [Compound 165] | 6%
